The source of these data is patent publication US4877881A, “Process of preparing pyrazoles, isoxazoles and analogs thereof having activity as 5-lipoxygenase inhibitors” (Warner-Lambert Company, priority 1988, dated 1989).

The target in one test is T1, cyclooxygenase (Rattus norvegicus, UniProt Q63921).
T1 construct: RBL-1 intact cell cyclooxygenase IC50 values; endogenous in cells; host or cells: RBL-1 rat basophilic leukemia cells (American Type Culture Collection)
T1 sequence (Q63921 27-602): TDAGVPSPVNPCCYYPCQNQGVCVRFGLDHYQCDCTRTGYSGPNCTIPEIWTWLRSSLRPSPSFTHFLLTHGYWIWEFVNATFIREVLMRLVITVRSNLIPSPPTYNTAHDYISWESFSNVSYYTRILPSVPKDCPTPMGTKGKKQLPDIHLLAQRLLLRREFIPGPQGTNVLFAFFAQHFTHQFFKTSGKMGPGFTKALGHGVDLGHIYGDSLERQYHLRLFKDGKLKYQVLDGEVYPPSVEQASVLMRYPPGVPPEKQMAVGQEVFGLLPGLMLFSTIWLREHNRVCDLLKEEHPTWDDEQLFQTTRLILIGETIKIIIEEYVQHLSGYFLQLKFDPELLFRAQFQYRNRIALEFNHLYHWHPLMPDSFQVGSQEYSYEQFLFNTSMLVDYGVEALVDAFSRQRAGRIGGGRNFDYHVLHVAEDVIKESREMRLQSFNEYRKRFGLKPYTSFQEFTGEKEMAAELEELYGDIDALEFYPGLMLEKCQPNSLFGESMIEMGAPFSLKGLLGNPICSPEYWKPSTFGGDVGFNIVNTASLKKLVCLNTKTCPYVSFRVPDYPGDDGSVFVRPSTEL
Briefly: ARBC Whole Cell Cyclooxygenase Assay in RBL-1 cells (PGF2α RIA). As to conditions: RBL-1 intact cell cyclooxygenase; A23187 5 μM. The test is classed as cell-based. As to the method:
(§1) ARBL/ARBC Whole Cell 5-Lipoxygenase and Cyclooxygenase Assays
(§2) The rat basophilic leukemia cell line (RBL-1) was obtained from the American Type Culture Collection (Rockville, Md.).
(§3) Radioimmuno assay (RIA) kits of LTB4 and PGF2α were obtained from Amersham (Arlington Heights, Ill.) and Seragen (Boston, Mass.) respectively.
(§4) All tissue culture media were obtained from GIBO (Gran Island, N.Y.).
(§5) RBL-1 cells were grown in culture (suspension) in Eagle's minimum essential medium supplemented with 12% fetal bovine serum and 1:100 antibiotic-antimycotic mixture at 37° C. in an incubator supplied with air-5% carbon dioxide. Cells were harvested by centrifugation. They were washed with cold phosphate buffered saline pH 7.4 (PBS; NaCl, 7.1 g; Na2 HOP4, 1.15 g; KH2 PO4, 0.2 g; and KCl, 0.2 g/L). […] Calcium ionophore A23187 (5 μM) was added and cells were incubated for seven minutes at 37° C. The reaction was stopped by chilling the tubes in ice for ten minutes. Cells were separated by centrifugation and the supernatant was stored at -20°. Aliquots (100 μl) were analyzed for LTB4 and PGF2α using radioimmuno assay kits as provided by the supplier.

The next test addresses T2, 5-lipoxygenase (Rattus norvegicus, UniProt P12527).
T2 construct: ARBL/ARBC Whole Cell 5-Lipoxygenase and Cyclooxygenase Assays; endogenous in cells; host or cells: RBL-1 rat basophilic leukemia cells (American Type Culture Collection)
T2 sequence (P12527 1-673): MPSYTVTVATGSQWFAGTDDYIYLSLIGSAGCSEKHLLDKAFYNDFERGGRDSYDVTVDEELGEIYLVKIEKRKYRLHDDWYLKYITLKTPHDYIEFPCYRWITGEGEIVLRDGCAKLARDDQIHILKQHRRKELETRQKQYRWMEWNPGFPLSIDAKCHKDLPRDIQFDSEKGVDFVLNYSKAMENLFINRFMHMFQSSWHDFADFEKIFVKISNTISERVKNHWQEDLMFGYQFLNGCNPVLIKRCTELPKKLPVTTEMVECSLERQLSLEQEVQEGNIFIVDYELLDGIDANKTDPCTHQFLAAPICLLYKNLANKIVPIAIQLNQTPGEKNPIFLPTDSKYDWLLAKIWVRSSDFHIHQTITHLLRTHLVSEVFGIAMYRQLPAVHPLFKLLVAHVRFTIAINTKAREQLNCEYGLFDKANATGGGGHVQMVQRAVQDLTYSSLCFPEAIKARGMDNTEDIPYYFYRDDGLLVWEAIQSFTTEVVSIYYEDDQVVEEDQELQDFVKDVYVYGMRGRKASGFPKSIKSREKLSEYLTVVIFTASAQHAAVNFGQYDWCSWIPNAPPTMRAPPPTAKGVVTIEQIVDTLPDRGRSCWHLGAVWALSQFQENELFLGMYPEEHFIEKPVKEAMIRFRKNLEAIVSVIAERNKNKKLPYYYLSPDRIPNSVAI
The experiment in a line: ARBL Whole Cell 5-Lipoxygenase Assay in RBL-1 cells (LTB4 RIA). The class given is cell-based. To be noted: RBL-1 intact cell 5-lipoxygenase; A23187 5 μM. As to the method: as §1, §2, §3, §4, §5

With `COC(=O)Cn1nc(C=Cc2ccc(O)c(OC)c2)cc1C` [Example 10J, 3-[β-(4'-Hydroxy-3'-methoxyphenyl)ethenyl]-5-methyl-1H-pyrazole-1-acetic acid, methyl ester], the IC50 is 30 µM at cyclooxygenase and greater than 10 µM against 5-lipoxygenase.
Taken in the same sequence, the figures for `COC(=O)C(=Cc1cc(Br)c(O)c(Br)c1)c1cc(C)no1` [Example 44, 5-[α-Carbomethoxy-β-(4'-hydroxy-3',5'-dibromophenyl)ethenyl]-3-methylisoxazole] were 5.2 µM and 12 µM.
Consider `CCOC(=O)Cn1nc(C)cc1/C=C/c1cc(OC)c(O)c(OC)c1` [Example 10D, (E)-5-[β-(4'-Hydroxy-3',5'-dimethoxyphenyl)ethenyl]3-methyl-1H-pyrazole-1-acetic acid, ethyl ester], for which the results for the IC50 at cyclooxygenase and against 5-lipoxygenase were greater than 30 µM and 0.3 µM, respectively.
On to `COc1cc(C=Cc2cc(C)n(CC(=O)O)n2)ccc1O` [Example 10K, 3-[β-(4'-Hydroxy-3'-methoxyphenyl)ethenyl]-5-methyl-1H-pyrazole-1-acetic acid], for which the IC50 against 5-lipoxygenase is greater than 20 µM.
Same read-out and setting: the result for `COc1cc(C=Cc2cc(C)nn2CC(=O)O)ccc1O` [Example 10L, 5-[β-(4'-Hydroxy-3'-methoxyphenyl)ethenyl]-3-methyl-1H-pyrazole-1-acetic acid] reads greater than 20 µM; that for `COc1cc(C=Cc2cc(C)[nH]n2)ccc1OC(C)=O` [Example 37, 3-[β-(4'-Acetoxy-3'-methoxyphenyl)ethenyl]-5-methylpyrazole], 3.5 µM.
Consider `COc1cc(C=Cc2cc(C)nn2CC(=O)O)cc(OC)c1O` [Example 10M, 5-[β-(4'-Hydroxy-3',5'-dimethoxyphenyl)ethenyl]-3-methyl-1H-pyrazole-1-acetic acid], for which the IC50 at cyclooxygenase and at 5-lipoxygenase was greater than 30 µM throughout.
As to `Cc1cc(C(=Cc2cc(C)c(O)c(C)c2)C(=O)O)on1` [Example 52, 5-[α-Carboxy-β-(4'-hydroxy-3',5'-dimethylphenyl)ethenyl]-3-methylisoxazole], the IC50 on cyclooxygenase and on 5-lipoxygenase was greater than 20 µM throughout.
On to `COC(=O)C(=Cc1cc(Cl)c(O)c(Cl)c1)c1cc(C)no1` [Example 41, 5-[α-Carbomethoxy-β-(4'-hydroxy-3,5-dichlorophenyl)ethenyl]-3-methylisoxazole], for which the results for the IC50 against cyclooxygenase and against 5-lipoxygenase were 5 µM and greater than 30 µM, respectively.
Turning to `Cc1cc(C=Cc2cc(Cl)cc(Cl)c2O)on1` [Example 32J, 5-[β-(2'-Hydroxy-3',5'-dichlorophenyl)ethenyl]-3-methylisoxazole], the IC50 is greater than 30 µM against cyclooxygenase and 4.7 µM on 5-lipoxygenase.
Taken in the same sequence, the figures for `COc1cc(C=Cc2cc(C(F)(F)F)[nH]n2)ccc1O` [Example 10A, 3-[β-(4'-Hydroxy-3'-methoxyphenyl)ethenyl]-5-trifluoromethylpyrazole] were 4.5 µM and 3.8 µM.
Taken in the same sequence, the figures for `COC(=O)Cn1nc(C=Cc2cc(OC)c(O)c(OC)c2)cc1C` [Example 10H, 3-[β-(4'-Hydroxy-3',5'-dimethoxyphenyl)ethenyl]-5-methyl-1H-pyrazole-1-acetic acid, methyl ester] were greater than 30 µM and 9.5 µM.
As to `Cc1cc(C=Cc2cc(C(C)(C)C)c(O)c(C(C)(C)C)c2)n(CC(=O)O)n1` [Example 10P, 5-[β-(4'-Hydroxy-3',5'-di-t-butylphenyl)ethenyl]-3-methyl-1H-pyrazole-1-acetic acid], the IC50 was greater than 30 µM on cyclooxygenase and 12 µM against 5-lipoxygenase.
Taken in the same sequence, the figures for `COc1cc(C=Cc2cc(C)n(CC(=O)O)n2)cc(OC)c1O` [Example 10N, 3-[β-(4'-hydroxy-3',5'-dimethoxyphenyl)ethenyl]-5-methyl-1H-pyrazole-1-acetic acid] were greater than 30 µM and greater than 20 µM.
Taken in the same sequence, the figures for `COC(=O)C(=Cc1cc(OC)c(O)c(OC)c1)c1cc(C)no1` [Example 40, 5-[β-Carbomethoxy-β-(4'-hydroxy-3',5'-dimethoxyphenyl)ethenyl]-3-methylisoxazole] were greater than 25 µM and greater than 10 µM.
Taken in the same sequence, the figures for `COC(=O)C(=Cc1cc(C)c(O)c(C)c1)c1cc(C)no1` [Example 43, 5-[α-Carbomethoxy-β-(4'-hydroxy-3',5'-dimethylphenyl)ethenyl]-3-methylisoxazole] were 2.2 µM and 17 µM.
For `COc1cccc(C=Cc2cc(C)no2)c1O` [Example 32F, 5-[β-(2'-Hydroxy-3'-methoxyphenyl)ethenyl]-3-methylisoxazole], the results for the IC50 on cyclooxygenase and against 5-lipoxygenase were 30 µM and 12 µM, respectively.
Taken in the same sequence, the figures for `COC(=O)Cn1nc(C)cc1C=Cc1ccc(O)c(OC)c1` [Example 10I, 5-[β-(4'-Hydroxy-3'-methoxyphenyl)ethenyl]-3-methyl-1H-pyrazole-1-acetic acid methyl ester] were greater than 25 µM and greater than 10 µM.
Take `Cc1cc(C=Cc2cc(C(C)(C)C)c(O)c(C(C)(C)C)c2)nn1CC(=O)O` [Example 10Q, 3-[β-(4'-Hydroxy-3',5'-di-t-butylphenyl)ethenyl]-5-methyl-1H-pyrazole-1-acetic acid]: the IC50 on cyclooxygenase and against 5-lipoxygenase was greater than 30 µM each time.
As for `COc1cc(C=Cc2cc(-c3ccccc3)no2)ccc1O` [Example 32E, 5-[β-(4'-Hydroxy-3'-methoxyphenyl)ethenyl]-3-phenyl-isoxazole], the IC50 against cyclooxygenase amounted to 2.8 µM; against 5-lipoxygenase, 4.5 µM.
Taken in the same sequence, the figures for `COC(=O)Cn1nc(C)cc1C=Cc1cc(C(C)(C)C)c(O)c(C(C)(C)C)c1` [Example 10G-2, 5-[β-(4'-hydroxy-3',5'-di-t-butylphenyl)ethenyl]-3-methyl-1H-pyrazole-1-acetic acid, methyl ester] were greater than 30 µM and 4.1 µM.
Taken in the same sequence, the figures for `Cc1cc(C(=Cc2cc(C(C)(C)C)c(O)c(C(C)(C)C)c2)C(=O)O)on1` [Example 51, 5-[α-Carboxy-β-(4'-hydroxy-3',5'-bis(1,1-dimethylethyl)phenyl)ethenyl]-3-methylisoxazole] were 2.5 µM and 20 µM.
Turning to `COC(=O)Cn1nc(C=Cc2cc(C(C)(C)C)c(O)c(C(C)(C)C)c2)cc1C` [Example 10G-1, 3-[β-(4'-Hydroxy-3',5'-di-t-butylphenyl)ethenyl]-5-methyl-1H-pyrazole-1-acetic acid, methyl ester], the IC50 against cyclooxygenase is greater than 30 µM; against 5-lipoxygenase, 4.5 µM.
Taken in the same sequence, the figures for `COc1cc(C=Cc2cc(-c3ccccc3)no2)cc(OC)c1O` [Example 32D, 5-[β(4'-Hydroxy-3',5'-dimethoxyphenyl)ethenyl]-3-phenylisoxazole] were 5.4 µM and less than 1 µM.
Taken in the same sequence, the figures for `COC(=O)C(=Cc1cc(Br)c(O)c(OC)c1)c1cc(C)no1` [Example 46A, 5-[α-Carbomethoxy-β-(3'-methoxy-4'-hydroxy-5'-bromophenyl)ethenyl]-3-methylisoxazole] were 12 µM and greater than 30 µM.
On 5-lipoxygenase, `COc1cc(C=Cc2cc(CCO)on2)ccc1O` [Example 36A, 3-[β-(4'-Hydroxy-3'-methoxyphenyl)ethenyl]-5-(2'-hydroxyethyl)isoxazole] came in with an IC50 of 21.5 µM.
